Assay results: patent US6096874A (Board of Regents, the University of Texas System, priority 1995, dated 2000)

Legend:
in vivo = experiment: in vivo; design: species or system rat; settings: for tissue uptake at 1 h / tissue uptake at 3 h / tissue uptake at 6 h / tissue uptake at 24 h / Tissue uptake findings (in words): rat; for tissue uptake at 1 h / tissue uptake at 3 h / tissue uptake at 6 h / tissue uptake at 24 h: iv; for Tissue uptake findings (in words): in vivo
Description: In animal tissue distribution studies, each rate was given 8.9 μCi (0.15 ml) tracer intravenously. The tumor-bearing rats were killed at 1, 3, 6 and 24 h. […] The amount of DES given should occupy tumor estrogen receptor sites. The methods for inducing tumors in rats was as described by those of skill in the art (radiology). […]
Female Fisher 344 rats (250-275 g) (Harlan, Inc., Indianapolis, Ind.) were inoculated with mammary tumor cells using the 13762 tumor cell line (s.c. 10^5 cells/rat). After 14 days, a tumor size of 1-2 cm was observed. For ^131 I-ITX studies, five groups of rats (N=3/group) were anesthetized with ketamine (10-15 mg/rat). The trans ^131 I-ITX was given to four of the five groups (8.9 μCi/rat, i.v.) and biodistribution was studied at 1, 3, 6 and 24 h intervals. In blocking studies, the fifth group of rats was given diethylstilbestrol (DES) (1.2 mg/rat) for 1 h, followed by 8.9 μCi of ^131 I-ITX; biodistribution was studied 6 h later. The tissues were collected at different time intervals. The tissues were weighted and counted for radioactivity. The percent of injected dose per gram of tissue weight was calculated. […]

[1] = Biodistribution in mammary tumor-bearing rats primed with estradiol; assay type: in vivo, rat; settings: for tissue uptake at 1 h / tissue uptake at 3 h / tissue uptake at 6 h / tissue uptake at 24 h: rat, iv
Description: Female Fisher 344 rats (250-275 g) (Harlan, Inc., Indianapolis, Ind.) were inoculated with mammary tumor cells using the 13762 tumor cell line (s.c. 10^5 cells/rat). After 14 days, a tumor size of 1-2 cm was observed. For ^131 I-ITX studies, five groups of rats (N=3/group) were anesthetized with ketamine (10-15 mg/rat). […] In blocking studies, the fifth group of rats was given diethylstilbestrol (DES) (1.2 mg/rat) for 1 h, followed by 8.9 μCi of ^131 I-ITX; biodistribution was studied 6 h later. The tissues were collected at different time intervals. The tissues were weighted and counted for radioactivity. The percent of injected dose per gram of tissue weight was calculated.
[…]. The biodistribution studies were conducted at 1, 3, 6 and 24 h.

[2] = 6 h, pretreated with DES (blocking)
[3] = 24 h, listed as 131 I-ITX, 1440 min
[4] = tumor, 1 h, read-out: Tumor uptake
[5] = tumor, 3 h, read-out: Tumor uptake
[6] = tumor, 6 h, read-out: Tumor uptake
[7] = tumor, 24 h, read-out: Tumor uptake

In the case of CCN(CC)CCOc1ccc(/C(=C(/CCC[131I])c2ccccc2)c2ccccc2)cc1 [^131 I-IODOTAMOXIFEN], the Tumor uptake (in vivo; 1 h, 60 min) is reported as 0.181 % injected dose/gram tissue, the Tumor uptake (in vivo; 3 h, 180 min) is reported as 0.229 % injected dose/gram tissue and the Blood uptake (in vivo; [2]) is reported as 0.072 % injected dose/gram tissue. For the same compound, the Kidney uptake (in vivo; [2]) was 1.296 % injected dose/gram tissue, the Liver uptake (in vivo; [2]) was 4.682 % injected dose/gram tissue and the Lung uptake (in vivo; [2]) was 2.173 % injected dose/gram tissue. The Muscle uptake (in vivo; [2]) was 0.172 % injected dose/gram tissue, the Spleen uptake (in vivo; [2]) was 2.366 % injected dose/gram tissue and the Thyroid uptake (in vivo; [2]) was 0.640 % injected dose/gram tissue. The Uterus uptake (in vivo; [2]) was 0.325 % injected dose/gram tissue, the Tumor uptake (in vivo; 6 h, pretreated with DES (blocking), 360 min) was 0.217 % injected dose/gram tissue and the Tumor uptake (in vivo; 6 h, pretreated with DES (blocking), listed as 131 I-TX, 360 min) was 0.22±0.059 % injected dose/gram tissue. The Tumor uptake (in vivo; 6 h, pretreated with DES (blocking), listed as [^131 I]ITX, 360 min) was 0.22±0.044 % injected dose/gram tissue, the Tumor uptake (in vivo; 6 h, 360 min) was 0.261 % injected dose/gram tissue and the Tumor uptake (in vivo; 24 h, 1440 min) was 0.267 % injected dose/gram tissue. The Tumor uptake (in vivo; [3]) was 0.267±0.0160 % injected dose/gram tissue, the tissue uptake at 1 h (in vivo; blood, 1 h, read-out: Blood uptake) was 0.158 %ID/g and the tissue uptake at 3 h (in vivo; blood, 3 h, read-out: Blood uptake) was 0.121 %ID/g. For the same compound, the tissue uptake at 6 h (in vivo; blood, 6 h, read-out: Blood uptake) was 0.124 %ID/g, the tissue uptake at 24 h (in vivo; blood, 24 h, read-out: Blood uptake) was 0.001 %ID/g and the “Tissue uptake findings (in words)” value (in vivo) was “both tumor and uterus uptake can be blocked”. The “Tissue uptake findings (in words)” value (in vivo; listed as 131 I-ITX) was “both tumor and uterus value were decreased in 6 h blocking group”, the tissue uptake at 1 h (in vivo; kidney, 1 h, read-out: Kidney uptake) was 1.88 %ID/g and the tissue uptake at 3 h (in vivo; kidney, 3 h, read-out: Kidney uptake) was 2.37 %ID/g. The tissue uptake at 6 h (in vivo; kidney, 6 h, read-out: Kidney uptake) was 1.36 %ID/g, the tissue uptake at 24 h (in vivo; kidney, 24 h, read-out: Kidney uptake) was 0.381 %ID/g and the tissue uptake at 1 h (in vivo; liver, 1 h, read-out: Liver uptake) was 5.6 %ID/g. The tissue uptake at 3 h (in vivo; liver, 3 h, read-out: Liver uptake) was 6 %ID/g, the tissue uptake at 6 h (in vivo; liver, 6 h, read-out: Liver uptake) was 4.63 %ID/g and the tissue uptake at 24 h (in vivo; liver, 24 h, read-out: Liver uptake) was 2.47 %ID/g. The tissue uptake at 1 h (in vivo; lung, 1 h, read-out: Lung uptake) was 3.95 %ID/g, the tissue uptake at 3 h (in vivo; lung, 3 h, read-out: Lung uptake) was 3.71 %ID/g and the tissue uptake at 6 h (in vivo; lung, 6 h, read-out: Lung uptake) was 2.84 %ID/g. For the same compound, the tissue uptake at 24 h (in vivo; lung, 24 h, read-out: Lung uptake) was 0.512 %ID/g, the tissue uptake at 1 h (in vivo; muscle, 1 h, read-out: Muscle uptake) was 0.201 %ID/g and the tissue uptake at 3 h (in vivo; muscle, 3 h, read-out: Muscle uptake) was 0.253 %ID/g. It also gave a tissue uptake at 6 h (in vivo; muscle, 6 h, read-out: Muscle uptake) of 0.204 %ID/g, a tissue uptake at 24 h (in vivo; muscle, 24 h, read-out: Muscle uptake) of 0.005 %ID/g and a tissue uptake at 1 h (in vivo; spleen, 1 h, read-out: Spleen uptake) of 3.38 %ID/g. For the same compound, the tissue uptake at 3 h (in vivo; spleen, 3 h, read-out: Spleen uptake) was 3.31 %ID/g, the tissue uptake at 6 h (in vivo; spleen, 6 h, read-out: Spleen uptake) was 2.33 %ID/g and the tissue uptake at 24 h (in vivo; spleen, 24 h, read-out: Spleen uptake) was 0.688 %ID/g. For the same compound, the tissue uptake at 1 h (in vivo; thyroid, 1 h, read-out: Thyroid uptake) was 0.393 %ID/g, the tissue uptake at 3 h (in vivo; thyroid, 3 h, read-out: Thyroid uptake) was 0.748 %ID/g and the tissue uptake at 6 h (in vivo; thyroid, 6 h, read-out: Thyroid uptake) was 0.776 %ID/g. The tissue uptake at 24 h (in vivo; thyroid, 24 h, read-out: Thyroid uptake) was 0.493 %ID/g, the tissue uptake at 1 h (in vivo; [4]) was 0.18 ± 0.062 %ID/g and the tissue uptake at 3 h (in vivo; [5]) was 0.23 ± 0.152 %ID/g. It also gave a tissue uptake at 6 h (in vivo; [6]) of 0.26 ± 0.166 %ID/g, a tissue uptake at 24 h (in vivo; [7]) of 0.27 ± 0.016 %ID/g and a tissue uptake at 1 h (in vivo; uterus, 1 h, read-out: Uterus uptake) of 0.414 %ID/g. For the same compound, the tissue uptake at 3 h (in vivo; uterus, 3 h, read-out: Uterus uptake) was 0.546 %ID/g, the tissue uptake at 6 h (in vivo; uterus, 6 h, read-out: Uterus uptake) was 0.408 %ID/g and the tissue uptake at 24 h (in vivo; uterus, 24 h, read-out: Uterus uptake) was 0.151 %ID/g. For the same compound, the Tumor uptake ([1]; 1 h, listed as 131 I-Iodo Analogue of Tamoxifen, 60 min) was 0.303 ± 0.0333 % injected dose/gram tissue, the Tumor uptake ([1]; 3 h, listed as 131 I-Iodo Analogue of Tamoxifen, 180 min) was 0.422 ± 0.0389 % injected dose/gram tissue and the Tumor uptake ([1]; 6 h, listed as 131 I-Iodo Analogue of Tamoxifen, 360 min) was 0.479 ± 0.1065 % injected dose/gram tissue. For the same compound, the Tumor uptake [1, 3] was 0.397±0.1231 % injected dose/gram tissue, the Tumor uptake ([1]; 24 h, listed as 131 I-Iodo Analogue of Tamoxifen, 1440 min) was 0.397 % injected dose/gram tissue and the tissue uptake at 1 h ([1]; blood, 10 uCi/rat, 1 h, read-out: Blood uptake) was 0.155 ± 0.004 %ID/g. The tissue uptake at 3 h ([1]; blood, 10 uCi/rat, 3 h, read-out: Blood uptake) was 0.12 ± 0.0137 %ID/g, the tissue uptake at 6 h ([1]; blood, 10 uCi/rat, 6 h, read-out: Blood uptake) was 0.086 ± 0.0018 %ID/g and the tissue uptake at 24 h ([1]; blood, 10 uCi/rat, 24 h, read-out: Blood uptake) was 0.036 ± 0.0001 %ID/g. The tissue uptake at 1 h ([1]; kidney, 10 uCi/rat, 1 h, read-out: Kidney uptake) was 1.3 ± 0.0839 %ID/g, the tissue uptake at 3 h ([1]; kidney, 10 uCi/rat, 3 h, read-out: Kidney uptake) was 1.49 ± 0.107 %ID/g and the tissue uptake at 6 h ([1]; kidney, 10 uCi/rat, 6 h, read-out: Kidney uptake) was 1.39 ± 0.116 %ID/g. For the same compound, the tissue uptake at 24 h ([1]; kidney, 10 uCi/rat, 24 h, read-out: Kidney uptake) was 0.573 %ID/g, the tissue uptake at 1 h ([1]; liver, 10 uCi/rat, 1 h, read-out: Liver uptake) was 6.746 ± 0.0546 %ID/g and the tissue uptake at 3 h ([1]; liver, 10 uCi/rat, 3 h, read-out: Liver uptake) was 6.73 ± 0.122 %ID/g. For the same compound, the tissue uptake at 6 h ([1]; liver, 10 uCi/rat, 6 h, read-out: Liver uptake) was 4.67 ± 0.461 %ID/g, the tissue uptake at 24 h ([1]; liver, 10 uCi/rat, 24 h, read-out: Liver uptake) was 2.71 %ID/g and the tissue uptake at 1 h ([1]; lung, 10 uCi/rat, 1 h, read-out: Lung uptake) was 2.83 ± 0.14 %ID/g. It also gave a tissue uptake at 3 h ([1]; lung, 10 uCi/rat, 3 h, read-out: Lung uptake) of 3.04 ± 0.411 %ID/g, a tissue uptake at 6 h ([1]; lung, 10 uCi/rat, 6 h, read-out: Lung uptake) of 3.06 ± 0.458 %ID/g and a tissue uptake at 24 h ([1]; lung, 10 uCi/rat, 24 h, read-out: Lung uptake) of 1.12 %ID/g. For the same compound, the tissue uptake at 1 h ([1]; muscle, 10 uCi/rat, 1 h, read-out: Muscle uptake) was 0.214 ± 0.0176 %ID/g, the tissue uptake at 3 h ([1]; muscle, 10 uCi/rat, 3 h, read-out: Muscle uptake) was 0.242 ± 0.187 %ID/g and the tissue uptake at 6 h ([1]; muscle, 10 uCi/rat, 6 h, read-out: Muscle uptake) was 0.253 ± 0.0208 %ID/g. It also gave a tissue uptake at 24 h ([1]; muscle, 10 uCi/rat, 24 h, read-out: Muscle uptake) of 0.114 %ID/g, a tissue uptake at 1 h [1, 4] of 0.3 ± 0.033 %ID/g and a tissue uptake at 3 h [1, 5] of 0.42 %ID/g. It also gave a tissue uptake at 6 h [1, 6] of 0.48 ± 0.107 %ID/g, a tissue uptake at 24 h [1, 7] of 0.4 ± 0.123 %ID/g and a tissue uptake at 1 h ([1]; uterus, 10 uCi/rat, 1 h, read-out: Uterus uptake) of 0.334 ± 0.0485 %ID/g. The tissue uptake at 3 h ([1]; uterus, 10 uCi/rat, 3 h, read-out: Uterus uptake) was 0.4 ± 0.132 %ID/g, the tissue uptake at 6 h ([1]; uterus, 10 uCi/rat, 6 h, read-out: Uterus uptake) was 0.559 ± 0.0982 %ID/g and the tissue uptake at 24 h ([1]; uterus, 10 uCi/rat, 24 h, read-out: Uterus uptake) was 0.335 %ID/g.
